These results are taken from US12190997B2, “Genetically altered LysM receptors with altered agonist specificity and affinity” (Aarhus Universitet, priority 2018, dated 2025).

Substitutions are numbered along the chain they refer to. Numbers in names are those of the source.

For orientation: Kd means the free concentration of one partner at which half of the binding sites on the other are occupied at equilibrium, for simple one-to-one binding. Higher therefore signals weaker binding.

In one assay the target is T1, NFP L147D/L154D mutant (Medicago truncatula, UniProt Q0GXS4, L147D/L154D).
T1 construct: The Medicago truncatula NFP ectodomain (residues 28-246) was codon-optimized; AcMNPV gp67 signal peptide (replaces native residues 1-27) (N, cleaved yes); made in house; host or cells: Sf9 insect cells (Spodoptera frugiperda), baculovirus, secreted into the medium
In words: BLI binding of NFP L147D/L154D mutant ectodomain to S. meliloti LCO-IV. An excerpt:
Creation of NFP point mutations: The NFP leucine residues L147 and L154 were replaced with aspartate residues. Aspartate is similar in size to leucine, but negatively charged where leucine is hydrophobic. Point mutants of NFP were engineered using site-directed mutagenesis. In particular, a double-mutated NFP was engineered where the leucine residues L147 and L154 were replaced with aspartate residues to create the mutant NFP L147D L154D. Point mutated versions of NFP were expressed and purified as described in Example 1.
NFP mutant binding assays: The binding assay using NFP wild type (WT) protein was replicated seven times, while the binding assay using the NFP mutant NFP L147D L154D was replicated four times.
Biolayer interferometry (BLI): Binding of NFP WT and NFP L147D/L154D mutant to S. meliloti LCO-IV was measured on an Octet RED 96 system (Pall ForteBio). S. meliloti LCO consists of a tetrameric/pentameric N-acetylglucosamine backbone that is O-sulfated on the reducing terminal residue, O-acetylated on the non-reducing terminal residue, and mono-N-acylated by unsaturated C16 acyl groups. Biotinylated ligand conjugates were immobilized on streptavidin biosensors (kinetic quality, Pall ForteBio) at a concentration of 125-250 nM for 5 minutes. The binding assays were replicated 7 times for the NFP WT, and 4 times for the NFP L147D/L154D mutant. Data analysis was performed in GraphPad Prism 6 software (GraphPad Software, Inc.). Equilibrium dissociation constants derived from the steady-state were determined by applying a non-linear regression (one site, specific binding) to the response at equilibrium plotted against the protein concentration. Kinetic parameters were determined by non-linear regression (association followed by dissociation) on the subtracted data. Binding of A. thaliana CERK1 (AtCERK1) to chitopentaose (CO5) and chitooctaose (CO8) was measured in the same way.
In general terms: BLI is a label-free optical method that tracks binding on a fibre tip over time.

The test system of assay [1] is Medicago nfp mutants. In words: Complementation (nodulation) of Medicago nfp mutants, inoculation with S. meliloti strain 2011. Particulars: 6-7 weeks after inoculation with S. meliloti strain 2011, hairy root transformation. The assay is classed as in vivo, Medicago truncatula. An excerpt: (§1) Complementation assay: Construct assembly, plant growth conditions, hairy root transformations, nodulation and ROS assays were generally conducted as described in Bozsoki et al. (2017) (Bozsoki Z, Cheng J, Feng F, Gysel K, Vinther M, Andersen K R, Oldroyd G, Blaise M, Radutoiu S, Stougaard J (2017) Receptor-mediated chitin perception in legume roots is functionally separable from Nod factor perception. Proc Natl Acad Sci 114: E8118-E8127). The tested transgenes were the mutated LysM receptors described in Example 2.

In assay [2] the test system is Medicago nfp mutants. The assay can be described thus: Complementation (nodulation) of Medicago nfp mutants, inoculation with S. medicae. The assay is classed as in vivo, Medicago truncatula.
From the text: as §1
These complementation experiments were repeated using S. medicae inoculation, which has been reported to nodulate Medicago with higher efficiency. The results shown in FIG. 4B are complementation tests where the plants were inoculated with S. medicae.

T1 sequence (Q0GXS4 28-246 L147D/L154D): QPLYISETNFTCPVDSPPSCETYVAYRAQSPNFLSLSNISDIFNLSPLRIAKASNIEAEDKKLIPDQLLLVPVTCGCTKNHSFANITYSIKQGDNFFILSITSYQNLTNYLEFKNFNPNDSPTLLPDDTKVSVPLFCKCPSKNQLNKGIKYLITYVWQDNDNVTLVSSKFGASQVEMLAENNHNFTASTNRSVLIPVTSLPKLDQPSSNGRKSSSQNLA

`CCCCCC/C=C\CCCCC/C=C/C(=O)N[C@H]1[C@H](O[C@H]2[C@H](O)[C@@H](NC(C)=O)[C@H](O[C@H]3[C@H](O)[C@@H](NC(C)=O)[C@H](O[C@H]4[C@H](O)[C@@H](NC(C)=O)C(O)O[C@@H]4COS(=O)(=O)O)O[C@@H]3CO)O[C@@H]2CO)O[C@H](COC(C)=O)[C@@H](O)[C@@H]1O` (stereo partly shown) [S. meliloti LCO-IV]: at NFP L147D/L154D mutant (FIGS. 19A-19C), the “association rate (kon) faster compared to WT NFP-ECD” value worked out at 4.5 fold and the “dissociation rate (koff) increased compared to WT NFP-ECD” value was 59 fold. Further, at NFP L147D/L154D mutant (S. meliloti LCO-IV, FIG. 2B), the Kd turned out to be 48 ± 1 µM, the “affinity compared with NFP WT” value was “approximately two times lower affinity”, the “association (Kon) compared with NFP WT” value is “almost unaffected” and the “dissociation (Koff) faster than NFP WT” value was “approximately 15 times”. The affinity at NFP L147D/L154D mutant (purified L147D/L154D NFP-ECD, FIGS. 19A-19C), expressed as Kd, was 167 ± 4.2 µM.

B1: wild type Nfp gene: wild type Medicago NFP LysM receptor transgene used for hairy root complementation (protein, UniProt Q0GXS4 28-595, looked up)
Serine/threonine …: QPLYISETNFTCPVDSPPSCETYVAYRAQSPNFLSLSNISDIFNLSPLRIAKASNIEAEDKKLIPDQLLLVPVTCGCTKNHSFANITYSIKQGDNFFILSITSYQNLTNYLEFKNFNPNLSPTLLPLDTKVSVPLFCKCPSKNQLNKGIKYLITYVWQDNDNVTLVSSKFGASQVEMLAENNHNFTASTNRSVLIPVTSLPKLDQPSSNGRKSSSQNLALIIGISLGSAFFILVLTLSLVYVYCLKMKRLNRSTSSSETADKLLSGVSGYVSKPTMYEIDAIMEGTTNLSDNCKIGESVYKANIDGRVLAVKKIKKDASEELKILQKVNHGNLVKLMGVSSDNDGNCFLVYEYAENGSLEEWLFSESSKTSNSVVSLTWSQRITIAMDVAIGLQYMHEHTYPRIIHRDITTSNILLGSNFKAKIANFGMARTSTNSMMPKIDVFAFGVVLIELLTGKKAMTTKENGEVVILWKDFWKIFDLEGNREERLRKWMDPKLESFYPIDNALSLASLAVNCTADKSLSRPTIAEIVLCLSLLNQPSSEPMLERSLTSGLDAEATHVVTSVIAR
Consider B1, for which, in the assay on Medicago nfp mutants [1], the nodules per plant is reported as 10 nodules per plant.

B2: double mutant construct (L147D/L154D): Medicago NFP with leucine residues L147 and L154 replaced with aspartate (hydrophobic patch mutant) (protein, UniProt Q0GXS4 28-595, looked up, variant L147D L154D)
Serine/threonine …: B1 Serine/threonine … with L120D, L127D
In the case of B2, the nodules per plant result in the assay on Medicago nfp mutants [1] is on record as “did not develop any nodules”. Also, the complementation entry with Medicago nfp mutants [2] is recorded as “complements poorly”.
